Experimental data: patent US20160039880A1 (priority 2012, published 2016)
Where two headings read alike, the source gives them in different places.

Columns and labels:
[1] = molecular target: T1, Human recombinant cyclophilin A (Cyp A) (Homo sapiens, UniProt P62937);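 further: cis to trans isomerization of SUC-AAPF-pNA by 2 nM enzyme, read as absorbance at 330 nm over 300 s at 10 °C, catalytic rate corrected for uncatalyzed background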
[2] = Water Solubility Assay (measured in pH 7.8 buffer); format: physicochemical;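 further: precipitation onset detected as rise in absorbance at 650 nm across increasing concentrations, after shaking for 18 h, blank wells receiving DMSO only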
[3] = molecular target: T1, Human recombinant cyclophilin A (Cyp A); test: Protease-free PPIase assay;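 further: cis to trans isomerization of SUC-AAPF-pNA by 2 nM enzyme, read as absorbance at 330 nm over 300 s at 10 °C, catalytic rate corrected for uncatalyzed background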
[4] = 35 mM HEPES pH 7.8, 1% DMSO, 25 °C, 18 h, read-out: Water Solubility Assay, concentration at which the compound remains in solution

T1 sequence (P62937 whole entry): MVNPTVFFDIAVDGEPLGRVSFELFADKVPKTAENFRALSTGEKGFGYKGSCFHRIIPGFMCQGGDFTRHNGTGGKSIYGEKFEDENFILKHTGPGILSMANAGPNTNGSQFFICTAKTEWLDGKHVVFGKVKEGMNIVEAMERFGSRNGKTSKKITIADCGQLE

Row | Compound | Ki [1] [nM] | also measured
1 | CC(C)CC1C(=O)NC(C(C)C)C(=O)N(C)C(CC(C)C)C(=O)NC(C)C(=O)NC(C)C(=O)N(C)C(CC(C)C)C(=O)N(C)C(CC(C)C)C(=O)N(C)C(C(C)C)C(=O)N(C)C(C(O)C(C)CCN2CCOCC2)C(=O)NC(C(C)C)C(=O)N(C)CC(=O)N1C [Compound AN, [(3R,4R,5S)-4-(hydroxy-3-methyl-5-(methylamino)-1-N-morpholino-hexanoic acid]^1 cyclosporin D] | 15 | 
2 | CCC1NC(=O)C(C(O)C(C)CCN2CC(OC)C2)N(C)C(=O)C(C(C)C)N(C)C(=O)C(CC(C)C)N(C)C(=O)C(CC(C)C)N(C)C(=O)C(C)NC(=O)C(C)NC(=O)C(CC(C)C)N(C)C(=O)C(C(C)C)NC(=O)C(CC(C)C)N(C)C(=O)C(C)N(C)C1=O [Compound EH, [[(3R,4R,5S)-4-Hydroxy-1-(3-methoxy-azetidin-1-yl)-3-methyl-5-(methylamino)-hexanoic acid]^1[(R)-methyl-Sar]^3 cyclosporin A] | 17 | solubility at 18 h ([2]; pH 7.8, read-out: Water Solubility Assay): >100 µM
3 | CC[C@H]1NC(=O)[C@@H]([C@H](O)[C@H](C)CCCC(=O)N2CCS(=O)(=O)CC2)N(C)C(=O)[C@@H](C(C)C)N(C)C(=O)[C@@H](CC(C)C)N(C)C(=O)[C@@H](CC(C)C)N(C)C(=O)[C@H](C)NC(=O)[C@@H](C)NC(=O)[C@@H](CC(C)C)N(C)C(=O)[C@@H](C(C)C)NC(=O)[C@H](CC(C)C)N(C)C(=O)[C@@H](C)N(C)C1=O [Compound Z, [(5R,6R,7S)-6-hydroxy-5-methyl-7-(methylamino)-1-({1,1-dioxo}thiomorpholin-4-yl)-1-oxo-octanoic acid]^1[(R)-methyl-Sar]^3 cyclosporin A] | 2 | solubility at 18 h [2, 4]: >100 µM
4 | CCC1NC(=O)C(C(O)C(C)CCCC(=O)NCCS(=O)(=O)N(C)C)N(C)C(=O)C(C(C)C)N(C)C(=O)C(CC(C)C)N(C)C(=O)C(CC(C)C)N(C)C(=O)C(C)NC(=O)C(C)NC(=O)C(CC(C)C)N(C)C(=O)C(C(C)C)NC(=O)C(CC(C)C)N(C)C(=O)C(C)N(C)C1=O [Compound W, [(5R,6R,7S)-6-hydroxy-5-methyl-7-(methylamino)-1-(2-{sulfonic acid dimethylamide}-ethylamino)-1-oxo-octanoic acid]^1[(R)-methyl-Sar]^3 cyclosporin A] | 1.9 | solubility at 18 h [2, 4]: >100 µM
5 | CC[C@H]1NC(=O)[C@@H]([C@H](O)[C@H](C)CCCC(=O)NCC2COCCO2)N(C)C(=O)[C@@H](C(C)C)N(C)C(=O)[C@@H](CC(C)C)N(C)C(=O)[C@@H](CC(C)C)N(C)C(=O)[C@H](C)NC(=O)[C@@H](C)NC(=O)[C@@H](CC(C)C)N(C)C(=O)[C@@H](C(C)C)NC(=O)[C@H](CC(C)C)N(C)C(=O)[C@@H](C)N(C)C1=O (some centres unmarked) [Compound ZX] | 2.3 | solubility at 18 h [2, 4]: >100 µM
6 | CC[C@H]1NC(=O)[C@@H]([C@H](O)[C@H](C)CCN2CCS(=O)(=O)CC2)N(C)C(=O)[C@@H](C(C)C)N(C)C(=O)[C@@H](CC(C)C)N(C)C(=O)[C@@H](CC(C)C)N(C)C(=O)[C@H](C)NC(=O)[C@@H](C)NC(=O)[C@@H](CC(C)C)N(C)C(=O)[C@@H](C(C)C)NC(=O)[C@H](CC(C)C)N(C)C(=O)[C@@H](C)N(C)C1=O [Compound P, [(3R,4R,5S)-4-Hydroxy-3-methyl-5-(methylamino)-1-(1,1-dioxo-thiomorpholino)-hexanoic acid]^1[(R)-Me-Sar]^3 cyclosporin A] | 3.2 | 
7 | CC[C@H]1NC(=O)[C@@H]([C@H](O)[C@H](C)CCN2CCN(C)CC2)N(C)C(=O)[C@@H](C(C)C)N(C)C(=O)[C@@H](CC(C)C)N(C)C(=O)[C@@H](CC(C)C)N(C)C(=O)[C@H](C)NC(=O)[C@@H](C)NC(=O)[C@@H](CC(C)C)N(C)C(=O)[C@@H](C(C)C)NC(=O)[C@H](CC(C)C)N(C)C(=O)[C@@H](C)N(C)C1=O [Compound L, [(3R,4R,5S)-4-hydroxy-3-methyl-5-(methylamino)-1-(4-methylpiperazino)-hexanoic acid]^1[(R)-Me-Sar]^3 cyclosporin A] | 7.3 | 
8 | CC[C@H]1NC(=O)[C@@H]([C@H](O)[C@H](C)CCN2CCN(C)CC2)N(C)C(=O)[C@@H](C(C)C)N(C)C(=O)[C@@H](CC(C)C)N(C)C(=O)[C@@H](CC(C)C)N(C)C(=O)[C@H](C)NC(=O)[C@@H](C)NC(=O)[C@@H](CC(C)C)N(C)C(=O)[C@@H](C(C)C)NC(=O)[C@H](CC(C)C)N(C)C(=O)CN(C)C1=O [Compound LL] | 46 | 
9 | CC[C@H]1NC(=O)[C@@H]([C@H](O)[C@H](C)CCN2CCOCC2)N(C)C(=O)[C@@H](C(C)C)N(C)C(=O)[C@@H](CC(C)C)N(C)C(=O)[C@@H](CC(C)C)N(C)C(=O)[C@H](C)NC(=O)[C@@H](C)NC(=O)[C@@H](CC(C)C)N(C)C(=O)[C@@H](C(C)C)NC(=O)[C@H](CC(C)C)N(C)C(=O)[C@@H](C)N(C)C1=O [Compound F, [(3R,4R,5S)-4-(hydroxy)-3-methyl-5-(methylamino)-1-(morpholin-4-yl)hexanoic acid]^1[(R)-Me-Sar]^3 cyclosporin A] | 4.5 | 
10 | CCC1NC(=O)C(C(O)C(C)CCCN2CCOCC2)N(C)C(=O)C(C(C)C)N(C)C(=O)C(CC(C)C)N(C)C(=O)C(CC(C)C)N(C)C(=O)C(C)NC(=O)C(C)NC(=O)C(CC(C)C)N(C)C(=O)C(C(C)C)NC(=O)C(CC(C)C)N(C)C(=O)CN(C)C1=O [Compound EI, [(4R,5R,6S)-5-Hydroxy-4-methyl-6-(methylamino)-1-(morpholin-4-yl)-heptanoic acid]^1 cyclosporin A] | 14 | 
11 | CC[C@H]1NC(=O)[C@@H]([C@H](O)[C@H](C)CCN(C)CC2COCCO2)N(C)C(=O)[C@@H](C(C)C)N(C)C(=O)[C@@H](CC(C)C)N(C)C(=O)[C@@H](CC(C)C)N(C)C(=O)[C@H](C)NC(=O)[C@@H](C)NC(=O)[C@@H](CC(C)C)N(C)C(=O)[C@@H](C(C)C)NC(=O)[C@H](CC(C)C)N(C)C(=O)[C@@H](C)N(C)C1=O (stereo partly drawn) [Compound AJ, [(3R,4R,5S)-4-Hydroxy-3-methyl-5-(methylamino)-1-(1,4-dioxan-2-ylmethyl)methylamino-hexanoic acid]^1[(R)-methyl-Sar]^3 cyclosporin A] | 12 | 
12 | CC[C@H]1NC(=O)[C@@H]([C@H](O)[C@H](C)CCN2CCNC(=O)C2)N(C)C(=O)[C@@H](C(C)C)N(C)C(=O)[C@@H](CC(C)C)N(C)C(=O)[C@@H](CC(C)C)N(C)C(=O)[C@H](C)NC(=O)[C@@H](C)NC(=O)[C@@H](CC(C)C)N(C)C(=O)[C@@H](C(C)C)NC(=O)[C@H](CC(C)C)N(C)C(=O)CN(C)C1=O [Compound NN] | 120 | 
13 | CC[C@H]1NC(=O)[C@@H]([C@H](O)[C@H](C)CCN2CCNC(=O)C2)N(C)C(=O)[C@@H](C(C)C)N(C)C(=O)[C@@H](CC(C)C)N(C)C(=O)[C@@H](CC(C)C)N(C)C(=O)[C@H](C)NC(=O)[C@@H](C)NC(=O)[C@@H](CC(C)C)N(C)C(=O)[C@@H](C(C)C)NC(=O)[C@H](CC(C)C)N(C)C(=O)[C@@H](C)N(C)C1=O [Compound N, [(3R,4R,5S)-4-hydroxy-3-methyl-5-(methylamino)-1-(N-3-piperazinone)-hexanoic acid]^1[(R)-Me-Sar]^3 cyclosporin A] | 6.1 | 
14 | CC[C@H]1NC(=O)[C@@H]([C@H](O)[C@H](C)CCNCCOC)N(C)C(=O)[C@@H](C(C)C)N(C)C(=O)[C@@H](CC(C)C)N(C)C(=O)[C@@H](CC(C)C)N(C)C(=O)[C@H](C)NC(=O)[C@@H](C)NC(=O)[C@@H](CC(C)C)N(C)C(=O)[C@@H](C(C)C)NC(=O)[C@H](CC(C)C)N(C)C(=O)[C@@H](C)N(C)C1=O [Compound AF, [(3R,4R,5S)-4-Hydroxy-3-methyl-5-(methylamino)-1-(2-methoxyethylamino)-hexanoic acid]^1[(R)-methyl-Sar]^3 cyclosporin A] | 28 | 
15 | CCC1NC(=O)C(C(O)C(C)CCNCCc2c[nH]cn2)N(C)C(=O)C(C(C)C)N(C)C(=O)C(CC(C)C)N(C)C(=O)C(CC(C)C)N(C)C(=O)C(C)NC(=O)C(C)NC(=O)C(CC(C)C)N(C)C(=O)C(C(C)C)NC(=O)C(CC(C)C)N(C)C(=O)C(C)N(C)C1=O [Compound AK, [(3R,4R,5S)-4-Hydroxy-3-methyl-5-(methylamino)-1-(2-{1H-imidazol-4-yl}-ethylamino)-hexanoic acid]^1[(R)-methyl-Sar]^3 cyclosporin A] | 42 | 
16 | CC[C@H]1NC(=O)[C@@H]([C@H](O)[C@H](C)CCN2CCSCC2)N(C)C(=O)[C@@H](C(C)C)N(C)C(=O)[C@@H](CC(C)C)N(C)C(=O)[C@@H](CC(C)C)N(C)C(=O)[C@H](C)NC(=O)[C@@H](C)NC(=O)[C@@H](CC(C)C)N(C)C(=O)[C@@H](C(C)C)NC(=O)[C@H](CC(C)C)N(C)C(=O)[C@@H](C)N(C)C1=O [Compound J, [(3R,4R,5S)-4-Hydroxy-3-methyl-5-(methylamino)-1-(thiomorpholino)-hexanoic acid]^1[(R)-Me-Sar]^3 cyclosporin A] | 3.7 | 
17 | [(3R,4R,5S)-4-Hydroxy-3-methyl-5-(methylamino)-1-2-(N,N-diethylamino)ethoxy-hexanoic acid]^1[(S)-thio-isopropyl-Sar]^3 cyclosporin A [Compound AL] | 27 | 
18 | CC[C@H]1NC(=O)[C@@H]([C@H](O)[C@H](C)CCN(C)Cc2ccncc2)N(C)C(=O)[C@@H](C(C)C)N(C)C(=O)[C@@H](CC(C)C)N(C)C(=O)[C@@H](CC(C)C)N(C)C(=O)[C@H](C)NC(=O)[C@@H](C)NC(=O)[C@@H](CC(C)C)N(C)C(=O)[C@@H](C(C)C)NC(=O)[C@H](CC(C)C)N(C)C(=O)[C@@H](C)N(C)C1=O [Compound DL, [(3R,4R,5S)-4-Hydroxy-3-methyl-5-(methylamino)-1-({pyridin-4-ylmethyl}-methylamino)-hexanoic acid]^1[(R)-methyl-Sar]^3 cyclosporin A] |  | solubility at 18 h ([2]; 35 mM HEPES buffer pH 7.8, 25 °C, aqueous buffer, kinetic from dmso stock, pH 7.8 buffer, read-out: Water Solubility Assay): > 100 µM; Ki [3]: 5.7 nM
